Reference: patent US20180086749A1, “INHIBITORS OF VIRUSES” (priority 2015, published 2018)
pEC50: −log10 of the molar value. Where “and” joins values, the source holds several entries; their conditions need not be identical. Equal values may be shown once. Read-outs that look alike come from different tables or passages of the source.

Tests used:
VEEV (TC83 strain) = assay: microbe, parasite or virus in culture; type: cell-based, Venezuelan equine encephalitis virus
CHIKV (S27 strain) = CHIKV (S27 strain) CPE assay; type: cell-based, Chikungunya virus
CHIKV S27 = type: cell-based, Chikungunya virus; conditions: 5 μM
LCMV-ARM = type: cell-based, Lymphocytic Choriomeningitis Virus
Influenza virus A (H1N1) = type: cell-based
[1] = tested on: VEEV TrD (Trinidad donkey); type: cell-based, Venezuelan equine encephalitis virus
YFV 17D = type: cell-based, Yellow Fever virus
in vitro = conditions: African green monkey
[2] = tested on: host gene expression in HEp-2 cells; assay: DNA microarray host gene expression; type: cell-based, Human; conditions: 5 μM, 18 hours
pVSV-luc = assay: microbe, parasite or virus in culture; type: cell-based, Vesicular stomatitis virus
VEEV V3526-luc = assay: microbe, parasite or virus in culture; type: cell-based, Venezuelan equine encephalitis virus; conditions: Venezuelan equine encephalitis virus
[3] = read-out: VEEV (TC83 strain) CPE Assay Potency mean EC50
[4] = Tables 7-10, read-out: CHIKV (S27 strain) CPE Assay Potency mean EC50
[5] = Venezuelan equine encephalitis virus, read-out: VEEV EC50
[6] = Chikungunya virus, read-out: CHIKV EC50

Row | SMILES | pEC50 (VEEV (TC83 strain); [3]) | CC50 (Vero 76 cells) [µM] | pEC50 (CHIKV (S27 strain); [4]) | other results
1 | CCOc1ccccc1CC(=O)N(c1nccs1)c1nc2c(s1)CCCC2 [Entry 23] | < 4.30 | > 50 | < 4.30 | 
2 | CCOc1ccccc1CC(=O)N(c1ccc(OC)cc1)c1nc2c(s1)CCCC2 [Entry 22] | 5.34 | > 50 | < 4.30 | 
3 | Cc1csc(CC(=O)N(C)c2nc3c(s2)CCCC3)c1 [C] |  |  |  | Log titer reduction at 5 μM (CHIKV S27): 3.62 log; Log titer reduction at 5 μM (LCMV-ARM): 3.014 log; Log titer reduction at 5 μM (Influenza virus A (H1N1)): 3.075 log; Log titer reduction at 5 μM [1]: 3.741 log; Log titer reduction at 5 μM (YFV 17D): 2.588 log
4 | CCOc1ccccc1NC(=O)N(c1ccccc1)c1nc2c(s1)CCCC2 |  |  |  | CC50 (in vitro; CC50): > 50 µM; pEC50 (VEEV (TC83 strain); [5]): 5.00; pEC50 (CHIKV (S27 strain); [6]): 4.91
5 | O=C(Cc1ccccc1C(F)(F)F)N(c1ccccc1)c1nc2c(s1)CCCC2 [Entry 19] | 5.92 | > 50 | 5.92 | 
6 | O=C(Cc1cccs1)N(c1ccccc1)c1nc2c(s1)CCCC2 [CB10002623] |  |  |  | GBP2 expression upregulation [2]: 3.5; IFI44 expression upregulation [2]: 2.83; IFIT1 expression upregulation [2]: 2.3; IRF9 expression upregulation [2]: 2.4; ISG20 expression upregulation [2]: 2.85; OASL expression fold increase [2]: 3.76 fold; expression of IFN-ε [2]: decreased in half; RIG-I expression fold increase ([2]; vs DMSO): 4.63 fold
7 | CN(C(=O)Cc1sccc1F)c1nc2c(s1)CCCC2 [Entry 33] |  |  |  | CC50 (in vitro; VERO Cell Cytotoxicity Assay mean CC50): 41.4 µM; pEC50 (VEEV (TC83 strain); Venezuelan equine encephalitis virus, read-out: VEEV (TC83 strain) CPE Assay Potency mean EC50): 6.40; pEC50 (CHIKV (S27 strain); Chikungunya virus, Tables 7-10, read-out: CHIKV (S27 strain) CPE Assay Potency mean EC50): 6.52
8 | CCOc1ccccc1CC(=O)N(c1nc2c(s1)CCCC2)c1ccccc1OC [Entry 20] | < 4.30 | > 50 | < 4.30 | 
9 | CC[C@@]1([C@@H]2O[C@@H]([C@H]3O[C@@](O)(CO)[C@H](C)C[C@@H]3C)C[C@@H]2C)CC[C@H]([C@]2(C)CC[C@]3(C[C@H](O)[C@@H](C)[C@@H]([C@@H](C)[C@@H](OC)[C@H](C)C(=O)O)O3)O2)O1 [Monensin, monensin, reference compound] |  |  |  | pEC50 (pVSV-luc; Vesicular stomatitis virus, N2a, read-out: EC50 pVSV-Gp): 6.66; pEC50 (pVSV-luc; Vesicular stomatitis virus, read-out: EC50 values range): 6.25 to 6.77; pEC50 (pVSV-luc; read-out: EC50 pVSV-Gp): 6.72; pEC50 (VEEV V3526-luc; N2a, read-out: EC50 V3526-luc): 6.60; pEC50 (VEEV V3526-luc; NIH3T3, read-out: EC50 V3526-luc): 7.70; pEC50 (VEEV V3526-luc; Vero 76, read-out: EC50 V3526-luc): 5.41; pEC50 (VEEV V3526-luc; read-out: EC50 V3526-luc): 7.70; pEC50 (VEEV V3526-luc; read-out: EC50 values range): 6.60 to 7.70
10 | O=C(Cc1cccs1)Nc1nc2c(s1)CCCC2 [A] |  |  |  | Log titer reduction at 5 μM (CHIKV S27): 0.61 log and 0.612 log; Log titer reduction at 5 μM (LCMV-ARM): 0.085 log; Log titer reduction at 5 μM (Influenza virus A (H1N1)): 4.949 log; Log titer reduction at 5 μM [1]: 1.765 log
11 | COc1csc(CC(=O)N(C)c2nc3c(s2)CCCC3)c1 [Entry 31] | 7.30 | 36.1 | 6.85 | 
12 | COCc1ccccc1CC(=O)N(C)c1nc2c(s1)CCCC2 [Entry 9] | 5.04 | > 50 | 5.03 | 
13 | CCOc1ccccc1CC(=O)N(CCOC)c1nc2c(s1)CCCC2 [Entry 16] | 4.96 | > 50 | 4.96 | 
14 | CN(C(=O)Cc1cc(F)cs1)c1nc2c(s1)CCCC2 [Entry 32] | 5.29 | 22.5 | 4.99 | 
15 | Cc1ccc(CC(=O)N(c2ccccc2)c2nc3c(s2)CCCC3)s1 [Entry 29] | 7.52 | 7.8 | 6.96 | 
16 | Cc1ccc(CC(=O)N(C)c2nc3c(s2)CCCC3)cc1 [Entry 12] | 6.05 | > 50 | 5.39 | 
17 | CCOc1ccccc1CC(=O)N(c1nc2c(s1)CCCC2)C(C)C [Entry 14] | 4.80 | > 50 | < 4.30 | 
18 | O=C(Cc1ccc(Br)s1)N(c1ccccc1)c1nc2c(s1)CCCC2 [Entry 27] | 7.70 | 17.2 | 7.30 | 
19 | COc1ccccc1CC(=O)N(C)c1nc2c(s1)CCCC2 [D] |  |  |  | Log titer reduction at 5 μM (CHIKV S27): 2.182 log; Log titer reduction at 5 μM [1]: 2.716 log
20 | O=C(Cc1ccco1)N(c1ccccc1)c1nc2c(s1)CCCC2 [Entry 26] | 5.17 | 25.8 | 5.09 | 

Row | SMILES | pEC50 (VEEV (TC83 strain); [3]) | CC50 (Vero 76 cells) [µM] | pEC50 (CHIKV (S27 strain); [4]) | other results
21 | CCOc1ccccc1CC(=O)N(c1cccc(OC)c1)c1nc2c(s1)CCCC2 [Entry 21] | 5.77 | > 50 | 5.39 | 
22 | Cc1ccc(C)c(CC(=O)N(C)c2nc3c(s2)CCCC3)c1 [Entry 13] | 4.93 | > 50 | 5.05 | 
23 | CN(C(=O)Cc1sccc1F)c1nc2c(s1)CCCC2 [B] |  |  |  | Log titer reduction at 5 μM (CHIKV S27): 4.024 log; Log titer reduction at 5 μM (LCMV-ARM): 3.466 log; Log titer reduction at 5 μM (Influenza virus A (H1N1)): 4.949 log; Log titer reduction at 5 μM [1]: 4.768 log; Log titer reduction at 5 μM (YFV 17D): 2.32 log
24 | O=C(Cc1ccccn1)N(c1ccccc1)c1nc2c(s1)CCCC2 [Entry 25] | < 4.30 | 33.2 | < 4.30 | 
25 | COc1ccccc1CC(=O)N(c1ccccc1)c1nc2c(s1)CCCC2 [Entry 17] | 6.15 | > 50 | 6.30 | 
26 | Cc1ccccc1CC(=O)N(C)c1nc2c(s1)CCCC2 [Entry 10] | 6.00 | > 50 | 5.44 | 
27 | O=C(Cc1sccc1Br)N(c1ccccc1)c1nc2c(s1)CCCC2 [G] |  |  |  | Log titer reduction at 5 μM (CHIKV S27): 5.179 log; Log titer reduction at 5 μM [1]: 4.754 log
28 | CCOc1ccccc1CC(=O)N(c1cccnc1)c1nc2c(s1)CCCC2 [Entry 24] | 5.60 |  | 4.97 | 
29 | COc1ccccc1CC(=O)N(c1ccccc1)c1nc2c(s1)CCCC2 [F] |  |  |  | Log titer reduction at 5 μM (CHIKV S27): 2.495 log; Log titer reduction at 5 μM [1]: 3.198 log
30 | CN(C(=O)Cc1ccc(C(F)(F)F)s1)c1nc2c(s1)CCCC2 [Entry 35] | < 4.30 | > 50 | < 4.30 | 
31 | Cc1csc(CC(=O)N(C)c2nc3c(s2)CCCC3)c1 [Entry 30] | 7.70 | 36.4 | 7.05 | 
32 | CCOc1ccccc1CC(=O)N(c1nc2c(s1)CCCC2)C1CCOCC1 [Entry 15] | 4.90 | > 50 | < 4.30 | 
33 | O=C(Cc1cccs1)Nc1nc2c(s1)CCCC2 [Entry 1] | 5.29 | > 50 | 5.31 | 
34 | O=C(Cc1sccc1Br)N(c1ccccc1)c1nc2c(s1)CCCC2 [Entry 28] | 7.70 | 22.4 | 7.30 | 
35 | CN(C(=O)Cc1sccc1C(F)(F)F)c1nc2c(s1)CCCC2 [Entry 34] |  | 6.4 | < 4.30 | 
36 | CCOc1ccccc1CC(=O)N(C)c1nc2c(s1)CCCC2 [E] |  |  |  | Log titer reduction at 5 μM (CHIKV S27): 3.161 log; Log titer reduction at 5 μM [1]: 3.411 log
37 | CCOc1ccc(CC(=O)N(C)c2nc3c(s2)CCCC3)cc1 [Entry 8] | < 4.30 | > 50 | < 4.30 | 
38 | Cc1cccc(CC(=O)N(C)c2nc3c(s2)CCCC3)c1 [Entry 11] | 5.89 | > 50 | 5.55 | 
39 | CCOc1ccccc1C1CCN(c2nc3c(s2)CCCC3)C1=O (stereo not drawn) |  |  |  | CC50 (in vitro; CC50): > 50 µM; pEC50 (VEEV (TC83 strain); [5]): 5.35; pEC50 (CHIKV (S27 strain); [6]): < 4.30
